Test results: patent US9974767B2, “Statins in the treatment of muscular dystrophies and myopathies” (University of Washington, priority 2014, dated 2018)
Entries after “also recorded” stand apart in the source; their conditions may differ.

What was measured:
Type in all cases: in vivo, mouse
[1] = test system: WT mice; assay: Plasma CK activity in wild type mice; details: 8 months treatment, vs untreated WT
Procedure: The activity levels of the mice were measured by voluntary running wheel activity over 2 days. […] Therefore, since CK was measured after the running wheel activity, the dramatic reduction in CK levels in Simvastatin-treated mdx mice is not related to exercise levels. […] Therefore, statins cause a robust reduction in CK release from dystrophic muscle both in long-term treated mice starting from a young age (3 weeks to 8 months), and in old mice (12 months) over a 2 month period.
DMD is a chronic, progressively degenerative disease and consequently potential treatments need to be effective over many years. […] The calculated dose given to the mice was between 5-10 mg/kg/day. This would equate to 20-40 mg/day for a 10 yea old DMD boy weighing 30 kg, based on mouse to human equivalence calculations, which is within the recommended dose range of statins for children.
Male dystrophin-deficient (mdx) and wild type (WT) mice on the C57BL/10ScSn background were used for all experiments, which were approved by the Institutional Animal Care and Use Committee (IACUC) at the University of Washington.
Simvastatin powder (TCI America) was formulated as a treatment in two ways; in the drinking water and in the food. […]
Plasma CK was evaluated as a measure of whole body muscle damage. […]

[2] = test system: mdx mice; assay: TA muscle function in situ (specific force, fatigue, recovery)
Procedure: Hindlimb (TA) muscle physiology was measured in situ, which has the advantages of direct nerve stimulation and intact blood circulation. […] We also evaluated muscle fatigue resistance and recovery from fatigue, because this is a major cause of weakness in dystrophic muscle. TA muscle fatigue was assessed after 1 min and 2 min of repetitive tetanic contractions (2 sec apart). […] Recovery from muscle fatigue was measured every 2 min up to 10 min post fatigue.
Muscle degeneration and loss of function in DMD begins very early in the disease and progressively worsens over time. Consequently, useful therapeutic agents must be effective when administered at various stages of the disease. […] Hindlimb (TA) muscle physiology was measured in situ. This method has the advantages of direct nerve stimulation and intact blood circulation, which provides an essentially in vivo approach for measuring muscle function. Remarkably, specific muscle force increased by 40% (P<0.001) for mdx Sim compared to mdx Con mice, a dramatic increase for a pharmacological agent.
In addition to the loss of specific force, increased muscle fatigue and slowed force recovery are also significant causes of muscle weakness in DMD. Muscle fatigue in TA was measured during repetitive tetanic contractions (every 2 seconds) for a total of 2 minutes. For mdx Con mice, force declined rapidly during the early part of the fatigue and then much less steeply for the remainder of the contractions (FIG. 12A). In contrast, the force decline for mdx Sim was very similar to the WT groups, with a slow force drop over the first minute and then a greater decline over the last minute (see FIG. 12B). […] Recovery from fatigue was measured up to 10 min post fatigue (FIG. 12C). […] The cellular mechanisms of muscle fatigue are complex, however ROS are known to be an important cause of force loss during muscle fatigue.
Tibialis anterior (TA) muscle function was measured in situ. Mice were anaesthetized with an intraperitoneal injection of Avertin (625 mg/kg) and placed on a heated metal platform (37° C.). The distal TA tendon was dissected free and sutured to the lever arm of the force and length control system (305C-LR, Aurora Scientific). Muscle contraction was provided by stimulation of the Sciatic nerve using bipolar electrodes, which was kept moist during the experiment with PBS. The knee bone was firmly anchored to the platform via a steel pin. A length-force curve was generated by stimulating the muscle at 120 Hz (200 ms duration), every 90 sec, from short to long muscle lengths. […] Fatigue recovery was measured every 2 min up to 10 min post-fatigue. […] Membranes were incubated with enhanced chemiluminescence (ECL) reagent (Amersham) and bands were detected by the FluorChem M, imaging system (Protein Simple).

[3] = test system: H2O2 (ROS); assay: H2O2 levels in diaphragm muscle homogenates, amplex red assay; details: old mdx mice
Source text: FIG. 14A. Western blot (top) showing the levels of the autophagy proteins LC3A (upper band) and LC3B (lower band) for mdx Con and mdx Sim. GAPDH is shown as a loading control. Pooled data (bottom) for LC3A and LC3B. **P<0.01 compared to mdx Con. FIG. 14B. Hydrogen peroxide (H2O2) levels in diaphragm muscle homogenates, as quantified with a fluorescent amplex red assay. *P<0.05 compared to mdx Con. FIG. 14C. Atrogin-1 mRNA levels in quadriceps muscles were quantified by qPCR and normalized to the internal control (HPRT). *P<0.05 compared to WT Con. **P<0.01 compared to WT Con.
To further explore this idea, we also measured the levels of the ROS (H2O2) in diaphragm muscle homogenates. […] This highlights important differences between dystrophic muscle, where statins reduce oxidative stress derived from NOX2, and normal muscle susceptible to statin myopathy, where mitochondrial ROS increases oxidative stress.

CCC(C)(C)C(=O)O[C@H]1C[C@@H](C)C=C2C=C[C@H](C)[C@H](CC[C@@H]3C[C@@H](O)CC(=O)O3)[C@H]21 [Simvastatin, simvastatin]
CK levels of WT mice [1]: no difference; also recorded: no effect | CK levels of WT mice ([1]; listed as simvastatin): no effect | force recovery at 2 min post fatigue ([2]; mdx Sim): 80.9 % of the initial, pre-fatigue force | force recovery at 10 min post fatigue ([2]; mdx Sim): 86.9% | increase of hindlimb (TA) specific muscle force ([2]; mdx Sim vs mdx Con, treatment from 3 to 6 months of age): 40% | TA force after 1 minute of fatigue ([2]; mdx Sim, tetanic contractions every 2 sec, mdx Con 53%): 68 % of initial force | less H2O2 compared to mdx Con [3]: 30%
